The subject of this assay is PRAME 425-433. In words: IFN-gamma ELISA on splenocytes restimulated with native peptide after intra-lymph-node immunization. Format: in vivo, HHD transgenic mice. The settings on record: different concentrations of plasmid or peptide (peptide together with dsRNA), inguinal lymph nodes, days 0, 3, 14 and 18; spleens 10 days after immunization; FIG. 4 in pg IFN-gamma/ml. The text has this: HHD transgenic mice (n=4/group) were immunized with a PRAME 425-433 expressing plasmid (as described in U.S. Provisional Application No. __/______ (Atty Docket No. MANNK.053PR), entitled METHODS AND COMPOSITIONS TO ELICIT MULTIVALENT IMMUNE RESPONSES AGAINST DOMINANT AND SUBDOMINANT EPITOPES, EXPRESSED ON CANCER CELLS AND TUMOR STROMA, filed on date even with this disclosure, which is hereby incorporated by reference in its entirety) or peptide together with dsRNA (different concentrations of plasmid or peptide, by direct inoculation into the inguinal lymph nodes with 25 μl of plasmid or peptide in PBS/lymph node, on days 0, 3, 14 and 18. Spleens were harvested at 10 days after completion of immunization, splenocytes were incubated over 48 hours with native peptide (10 μg/ml), supernatants harvested and IFN-gamma concentration measured by ELISA.

For the substance “PRAME 425-433 peptide: PRAME 425-433 peptide given together with dsRNA into inguinal lymph nodes (SLLQHLIGL; UniProt P78395 425-433, looked up, fragment)”, the “magnitude of the immune response (IFN-gamma concentration measured by ELISA)” value is recorded as “the larger the dose of peptide, the lower the immune response”.

These data come from patent US20050287068A1, “Efficacy of active immunotherapy by integrating diagnostic with therapeutic methods” (priority 2004, published 2005).
